Drawing on patent publication US20180371044A1, “PEPTIDOMIMETIC MACROCYCLES” (Aileron Therapeutics, Inc., priority 2015, published 2018), this text covers EC50 for seven molecules.

Where a SMILES comes first, the peptide text is derived from it. Bridges are numbered along the chain shown (N, C = ends). [ ]: non-standard residue; d: D form. NMeY = CN[C@@H](Cc1ccc(O)cc1)C(=O)O; R8 = C=CCCCCCC[C@@](C)(N)C(=O)O; S5 = C=CCCC[C@](C)(N)C(=O)O; Nle = CCCC[C@H](N)C(=O)O

For the assay, the target named is T1, human GHRH receptor (hGHRHR) (Homo sapiens, UniProt Q02643).
T1 construct: expressed in transfected cells; host or cells: Human 293 cells
T1 sequence (Q02643 23-423): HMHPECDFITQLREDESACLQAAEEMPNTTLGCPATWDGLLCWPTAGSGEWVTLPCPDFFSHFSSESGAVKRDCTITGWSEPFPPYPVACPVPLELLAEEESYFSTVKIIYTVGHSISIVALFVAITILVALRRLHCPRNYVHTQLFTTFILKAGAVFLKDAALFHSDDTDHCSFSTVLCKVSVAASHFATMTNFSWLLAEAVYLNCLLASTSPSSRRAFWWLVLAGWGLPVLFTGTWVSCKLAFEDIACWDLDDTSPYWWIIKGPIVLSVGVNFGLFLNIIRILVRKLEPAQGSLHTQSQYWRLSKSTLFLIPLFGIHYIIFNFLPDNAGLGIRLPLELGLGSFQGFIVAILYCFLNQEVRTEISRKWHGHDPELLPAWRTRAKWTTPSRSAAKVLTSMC
In words: GHRHR agonism measured by cAMP (HTRF) in human 293 cells expressing hGHRHR.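 Further: receptor expressed transiently or stably, cells stimulated in serum-free medium, EC50 from a non-linear dose-response fit, maximal response defined by reference GHRH stimulation.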 In kind it is cell-based. To be noted: 30 min at RT. For orientation: TR-FRET usually uses a lanthanide donor and a delayed reading to cut background.
Experimental: GHRH (1-29) and cross-linked peptidomimetic macrocycles were tested for agonism at the human GHRH receptor (hGHRHR) at various concentrations. Human 293 cells transiently or stably expressing hGHRHR were detached from cell culture flasks with versene (Life Technologies™), suspended in serum-free medium (50 k cells/assay point), and stimulated for 30 min at RT with GHRH (1-29) (Bachem™) or cross-linked peptidomimetic macrocycles. cAMP was quantified using an HTRF®-based assay (CisBio) and used according to the manufacturer's instructions. An EC50 for each agonist was calculated from a non-linear fit of response vs dose (GraphPad™ Prism). The maximum response was determined by stimulating with 10 μM GHRH (1-29). (+=>50 nm; ++=>25-50 nm; +++=>10-25 nm; ++++=>1-10 nm; +++++=≤1 nm).
`CCCC[C@H](NC(=O)[C@@H](NC(=O)[C@H](CC(=O)O)NC(=O)[C@H](CCC(N)=O)NC(=O)[C@H](CC(C)C)NC(=O)[C@H](CC(C)C)NC(=O)[C@H](CCCCN)NC(=O)[C@H](CCCNC(=N)N)NC(=O)[C@]1(C)CCCC=CCCCCCC[C@@](C)(NC(=O)[C@H](CCCNC(=N)N)NC(=O)[C@H](Cc2ccc(O)cc2)NC(=O)[C@H](CO)NC(=O)[C@H](CC(N)=O)NC(=O)[C@@H](NC(=O)[C@H](Cc2ccccc2)NC(=O)[C@@H](NC(=O)[C@H](C)NC(=O)[C@H](CC(=O)O)NC(=O)[C@@H](C)NC(=O)[C@@H](N)Cc2ccc(O)cc2)[C@@H](C)CC)[C@@H](C)O)C(=O)N[C@@H](C(C)C)C(=O)N[C@@H](CC(C)C)C(=O)NCC(=O)N[C@@H](CCC(N)=O)C(=O)N[C@@H](CC(C)C)C(=O)N[C@@H](CO)C(=O)N1)[C@@H](C)CC)C(=O)N[C@@H](CO)C(=O)N[C@@H](CCCNC(=N)N)C(N)=O` [SP-4] (H-Y[dA]DAIFTNSYR[R8]VLGQLS[S5]RKLLQDI[Nle]SR-NH2; staple 12-19) returned an EC50 of 10 to 25 nM.

`CCCC[C@H](NC(=O)[C@@H](NC(=O)[C@H](CC(=O)O)NC(=O)[C@H](CCC(N)=O)NC(=O)[C@H](CC(C)C)NC(=O)[C@H](CC(C)C)NC(=O)[C@H](CCCCN)NC(=O)[C@H](CCCNC(=N)N)NC(=O)[C@H](C)NC(=O)[C@H](CO)NC(=O)[C@H](CC(C)C)NC(=O)[C@H](CCC(N)=O)NC(=O)[C@H](C)NC(=O)[C@H](CC(C)C)NC(=O)[C@@H](NC(=O)[C@H](CCCCN)NC(=O)[C@H](CCCNC(=N)N)NC(=O)[C@H](Cc1ccc(O)cc1)NC(=O)[C@H](CO)NC(=O)[C@H](CC(N)=O)NC(=O)[C@@H](NC(=O)[C@H](Cc1ccccc1)NC(=O)[C@@H](NC(=O)[C@H](C)NC(=O)[C@H](CC(=O)O)NC(=O)[C@H](C)NC(=O)[C@@H](N)Cc1ccc(O)cc1)[C@@H](C)CC)[C@@H](C)O)C(C)C)[C@@H](C)CC)C(=O)N[C@@H](CO)C(=O)N[C@@H](CCCNC(=N)N)C(N)=O` [SP-5] (H-YADAIFTNSYRKVLAQLSARKLLQDI[Nle]SR-NH2) yielded an EC50 of 1 to 10 nM.

Turning to `CCCC[C@H](NC(=O)[C@@H](NC(=O)[C@H](CC(=O)O)NC(=O)[C@H](CCC(N)=O)NC(=O)[C@H](CC(C)C)NC(=O)[C@H](C)NC(=O)[C@H](CCCCN)NC(=O)[C@H](CCCNC(=N)N)NC(=O)[C@H](C)NC(=O)[C@H](CO)NC(=O)[C@H](CC(C)C)NC(=O)[C@H](CCC(N)=O)NC(=O)[C@H](C)NC(=O)[C@H](CC(C)C)NC(=O)[C@@H](NC(=O)[C@]1(C)CCCC=CCCC[C@](C)(NC(=O)[C@@H](NC(=O)[C@H](Cc2ccccc2)NC(=O)[C@@H](NC(=O)[C@H](C)NC(=O)[C@H](CC(=O)O)NC(=O)[C@H](C)NC(=O)[C@H](Cc2ccc(O)cc2)NC)[C@@H](C)CC)[C@@H](C)O)C(=O)N[C@@H](CO)C(=O)N[C@@H](Cc2ccc(O)cc2)C(=O)N[C@@H](CCCNC(=N)N)C(=O)N1)C(C)C)[C@@H](C)CC)C(=O)N[C@@H](CO)C(=O)N[C@@H](CCCNC(=N)N)C(N)=O` [SP-9] (H-[NMeY]ADAIFT[S5]SYR[S5]VLAQLSARKALQDI[Nle]SR-NH2; staple 8-12), the EC50 lay in the range of 1 to 10 nM.

Regarding `CCCC[C@H](NC(=O)[C@@H](NC(=O)[C@H](CC(=O)O)NC(=O)[C@H](CCC(N)=O)NC(=O)[C@H](CC(C)C)NC(=O)[C@H](C)NC(=O)[C@H](CCCCN)NC(=O)[C@H](CCCNC(=N)N)NC(=O)[C@H](C)NC(=O)[C@H](CO)NC(=O)[C@H](CC(C)C)NC(=O)[C@H](CCC(N)=O)NC(=O)[C@H](C)NC(=O)[C@H](CC(C)C)NC(=O)[C@]1(C)CCCC=CCCC[C@](C)(NC(=O)[C@H](C)NC(=O)[C@@H](NC(=O)[C@H](Cc2ccccc2)NC(=O)[C@@H](NC(=O)[C@H](C)NC(=O)[C@H](CC(=O)O)NC(=O)[C@H](C)NC(=O)[C@H](Cc2ccc(O)cc2)NC)[C@@H](C)CC)[C@@H](C)O)C(=O)N[C@@H](Cc2ccc(O)cc2)C(=O)N[C@@H](CCCNC(=N)N)C(=O)N[C@@H](CCCCN)C(=O)N1)[C@@H](C)CC)C(=O)N[C@@H](CO)C(=O)N[C@@H](CCCNC(=N)N)C(N)=O` [SP-10] (H-[NMeY]ADAIFTA[S5]YRK[S5]LAQLSARKALQDI[Nle]SR-NH2; staple 9-13), the EC50 was in the range of 1 to 10 nM.

For `CCCC[C@H](NC(=O)[C@@H](NC(=O)[C@H](CC(=O)O)NC(=O)[C@H](CCC(N)=O)NC(=O)[C@H](CC(C)C)NC(=O)[C@H](C)NC(=O)[C@H](CCCCN)NC(=O)[C@H](CCCNC(=N)N)NC(=O)[C@H](C)NC(=O)[C@H](CO)NC(=O)[C@H](CC(C)C)NC(=O)[C@]1(C)CCCC=CCCC[C@](C)(NC(=O)[C@H](CCCNC(=N)N)NC(=O)[C@H](Cc2ccc(O)cc2)NC(=O)[C@H](CO)NC(=O)[C@H](C)NC(=O)[C@@H](NC(=O)[C@H](Cc2ccccc2)NC(=O)[C@@H](NC(=O)[C@H](C)NC(=O)[C@H](CC(=O)O)NC(=O)[C@H](C)NC(=O)[C@H](Cc2ccc(O)cc2)NC)[C@@H](C)CC)[C@@H](C)O)C(=O)N[C@@H](C(C)C)C(=O)N[C@@H](CC(C)C)C(=O)N[C@@H](C)C(=O)N1)[C@@H](C)CC)C(=O)N[C@@H](CO)C(=O)N[C@@H](CCCNC(=N)N)C(N)=O` [SP-11] (H-[NMeY]ADAIFTASYR[S5]VLA[S5]LSARKALQDI[Nle]SR-NH2; staple 12-16), the EC50 was in the range of 10 to 25 nM.

In turn, `CCCC[C@H](NC(=O)[C@@H](NC(=O)[C@H](CC(=O)O)NC(=O)[C@H](CCC(N)=O)NC(=O)[C@H](CC(C)C)NC(=O)[C@H](C)NC(=O)[C@H](CCCCN)NC(=O)[C@H](CCCNC(=N)N)NC(=O)[C@H](C)NC(=O)[C@]1(C)CCCC=CCCC[C@](C)(NC(=O)[C@@H](NC(=O)[C@H](CCCCN)NC(=O)[C@H](CCCNC(=N)N)NC(=O)[C@H](Cc2ccc(O)cc2)NC(=O)[C@H](CO)NC(=O)[C@H](C)NC(=O)[C@@H](NC(=O)[C@H](Cc2ccccc2)NC(=O)[C@@H](NC(=O)[C@H](C)NC(=O)[C@H](CC(=O)O)NC(=O)[C@H](C)NC(=O)[C@H](Cc2ccc(O)cc2)NC)[C@@H](C)CC)[C@@H](C)O)C(C)C)C(=O)N[C@@H](C)C(=O)N[C@@H](CCC(N)=O)C(=O)N[C@@H](CC(C)C)C(=O)N1)[C@@H](C)CC)C(=O)N[C@@H](CO)C(=O)N[C@@H](CCCNC(=N)N)C(N)=O` [SP-13] (H-[NMeY]ADAIFTASYRKV[S5]AQL[S5]ARKALQDI[Nle]SR-NH2; staple 14-18) returned an EC50 of 10 to 25 nM.

`CCCC[C@H](NC(=O)[C@@H](NC(=O)[C@H](CC(=O)O)NC(=O)[C@H](CCC(N)=O)NC(=O)[C@H](CC(C)C)NC(=O)[C@H](C)NC(=O)[C@H](CCCCN)NC(=O)[C@H](CCCNC(=N)N)NC(=O)[C@]1(C)CCCC=CCCC[C@](C)(NC(=O)[C@H](CC(C)C)NC(=O)[C@@H](NC(=O)[C@H](CCCCN)NC(=O)[C@H](CCCNC(=N)N)NC(=O)[C@H](Cc2ccc(O)cc2)NC(=O)[C@H](CO)NC(=O)[C@H](C)NC(=O)[C@@H](NC(=O)[C@H](Cc2ccccc2)NC(=O)[C@@H](NC(=O)[C@H](C)NC(=O)[C@H](CC(=O)O)NC(=O)[C@H](C)NC(=O)[C@H](Cc2ccc(O)cc2)NC)[C@@H](C)CC)[C@@H](C)O)C(C)C)C(=O)N[C@@H](CCC(N)=O)C(=O)N[C@@H](CC(C)C)C(=O)N[C@@H](CO)C(=O)N1)[C@@H](C)CC)C(=O)N[C@@H](CO)C(=O)N[C@@H](CCCNC(=N)N)C(N)=O` [SP-14] (H-[NMeY]ADAIFTASYRKVL[S5]QLS[S5]RKALQDI[Nle]SR-NH2; staple 15-19) gave an EC50 of 1 to 10 nM.

As usually defined, the EC50 is the concentration giving half of the maximal effect.
